Data reported in patent US20040121947A1, “Compounds which inhibit beta-secretase activity and methods of use thereof” (Oklahoma Medical Research Foundation, priority 2000, published 2004).
“And” between values parts separate entries of the source, which are not always exact repeats. Identical values can stand only once. Like-named read-outs stand apart in the source and are kept apart here.

How the values were obtained:
memapsin 2 = molecular target: T1, memapsin 2 (Homo sapiens, UniProt P56817); assay: Inhibition of memapsin 2 proteolytic activity, fluorogenic substrate FS-2; assay type: biochemical; settings: for % Inhibition Mep2: enzyme concentration equals the compound concentration; for Selectivity: Ki for memapsin 2 lower than Ki for memapsin 1: memapsin 2 relative to memapsin 1; for % Inh (M1/M2): ratio of % inhibition memapsin 1 / memapsin 2, 1 or less = greater inhibition of memapsin 2
T1 construct: pET-11 vector-derived residues 1-15 of promemapsin 2-T1 (N, cleaved yes); made in house; host or cells: E. coli
In short: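 Spontaneously activated memapsin 2 (80 nM final) equilibrated with inhibitor (about 10 nM–10 μM) in 0.1 M NaOAc pH 4.0 with 10% DMSO for 20 min at 37 °C, with fluorogenic substrate FS-2. Ki converted from Ki apparent using substrate concentration and Km.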

memapsin 1 = molecular target: T2, memapsin 1 (Homo sapiens, UniProt Q9Y5Z0); assay: Inhibition of memapsin 1 proteolytic activity, fluorogenic substrate FS-2; assay type: biochemical; settings: for % Inhibition Mep1: enzyme concentration equals the compound concentration
T2 construct: pET-11 vector-derived residues 1-14 of promemapsin 1-T1 (N, cleaved yes); made in house; host or cells: E. coli
T2 sequence (Q9Y5Z0 63-466 limits assumed): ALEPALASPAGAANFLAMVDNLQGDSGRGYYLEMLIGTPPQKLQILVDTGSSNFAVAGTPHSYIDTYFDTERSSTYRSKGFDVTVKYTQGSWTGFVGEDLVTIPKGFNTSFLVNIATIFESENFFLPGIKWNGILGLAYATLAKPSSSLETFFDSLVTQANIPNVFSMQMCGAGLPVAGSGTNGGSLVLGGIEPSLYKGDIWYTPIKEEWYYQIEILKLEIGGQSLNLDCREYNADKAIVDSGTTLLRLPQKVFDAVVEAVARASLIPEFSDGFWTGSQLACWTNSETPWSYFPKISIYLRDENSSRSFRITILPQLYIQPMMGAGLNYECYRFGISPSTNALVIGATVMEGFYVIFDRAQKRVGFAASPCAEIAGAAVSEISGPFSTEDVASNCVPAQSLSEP
Description: Vi/Vo depicts the ratio of initial cleavage velocities of the substrate FS-2 (Ermolieff, et al., Biochemistry […]:12450-12456 (2000)) by memapsin 1 or memapsin 2 in the absence (Vo) or presence (Vi) of a compound of the invention. […] The Vi/Vo values depicted in Table 1 were determined at conditions under which the enzyme and inhibitor concentrations were equal (e.g., about 80 nM, 100 nM).
The relationship of Ki (independent of substrate concentration) to Kiapp is a function of substrate concentration in the assay and the Km for cleavage of the substrate by either memapsin 1 or memapsin 2 by the relationship:
An aliquot of the inhibitor of known concentration in DMSO was diluted into 1.8 ml 0.1 M NaOAc, pH 4.0. DMSO and added to a final concentration of 10% (v/v), and memapsin 2 (final concentration of 80 nM), followed by a 20 minute equilibration at 37° C. Compounds were evaluated for the ability to inhibit memapsin 1 and memapsin 2 at concentrations between about 10 nM and about 10 μm of inhibitor.
The relationship of Ki (independent of substrate concentration) to Kiapp is a function of substrate concentration in the assay and the Km for cleavage of the substrate by either memapsin 1 or memapsin 2 by the relationship: […]

plasma Aβ40 = assay: Inhibition of Aβ production in transgenic mouse model of Alzheimer's disease (plasma Aβ40 ELISA); assay type: in vivo, APP/F mice; settings: for Sustainment of inhibition of plasma Aβ40: over a 24-h period; for Blood brain barrier penetration (from reduction of plasma Aβ): transgenic mice; for Decrease in plasma Aβ40: within 30 minutes following i.p. injection of about 163 nanomoles
Description: Compounds MMI-138, MMI-165, and MMI-185 were synthesized as described above. Compounds were dissolved in 1 ml of dimethyl sulfoxide (DMSO) to a final concentration of about 1 mg/ml for MMI-165 and MMI-185, and about 10 mg/ml for MMI-138. […] Inhibitors were diluted into PBS or H2O immediately prior to injection, as described below. Inhibition constants were determined by methods described by Ermolieff, et al. (Biochem. 39:12450-12456 (2000), the teachings of which are incorporated hereby in their entirety).
The tg2576 strain of mice was obtained from Taconic (Germantown, N.Y.). The APP/F strain of mice were obtained by mating the tg2576 mice with the FVB/N strain. To determine presence of the Swedish APP gene in APP/F mice, the DNA from mice was isolated according to the Qiagen Dneasy™ Tissue Kit. PCR (Qiagen kit and protocol) was used to amplify the fragment of DNA corresponding to the human Swedish APP gene. The following primers were used: […]
At the age of three months, animals of the Alzheimer's disease mouse model APP/F were injected intraperitoneally (i.p.) with about 163 nanomoles of either compounds MMI-138 (molecular weight 674 g/mole; 110 μg per animal, n=2), MMI-165 (molecular weight 626 g/mole; 102 μg per animal, n=2), or MMI-185 (molecular weight 686; 112 μg per animal, n=2).
Heparinized capillary tubes collected blood samples from anesthetized animals from either the retro-orbital sinus or from the saphenous vein at specified intervals following injection. The blood samples were transferred to sterile 1.5 mL microcentrifuge tubes, centrifuged at 5,100 RPM for 10 minutes to recover the plasma (supernatant), and stored at −70° C. until analysis for the Aβ40 by Enzyme Linked-Immuno-Sorbent Assay (ELISA).
A sandwich ELISA (BioSource International, Camarillo, Calif.) was used to determine the levels of Aβ40 in plasma samples. The ELISA utilizes a primary antibody specific for human Aβ for the immobilization of the amino-terminus and a detection antibody specific for the carboxy-terminal amino acids of Aβ40. A conjugated secondary antibody was used to detect the ternary complex, using a stabilized chromogen substrate, quantifiable following addition of 1 M HCl, with the optical densities measured at 450 nm. The procedures were followed according to the BioSource protocol. Optical densities were converted to pg/ml quantities of Aβ40 using a linear regression of the optical densities of standards obtained from the commercial kit, to their known concentrations.

[1] = Table 9, read-out: Ki apparent Mep2
[2] = memapsin 2, apparent Ki in presence of substrate FS-2, read-out: Ki app
[3] = memapsin 2, independent of substrate, converted from Ki apparent, read-out: Ki

T1 sequence (P56817 41-454 limits assumed): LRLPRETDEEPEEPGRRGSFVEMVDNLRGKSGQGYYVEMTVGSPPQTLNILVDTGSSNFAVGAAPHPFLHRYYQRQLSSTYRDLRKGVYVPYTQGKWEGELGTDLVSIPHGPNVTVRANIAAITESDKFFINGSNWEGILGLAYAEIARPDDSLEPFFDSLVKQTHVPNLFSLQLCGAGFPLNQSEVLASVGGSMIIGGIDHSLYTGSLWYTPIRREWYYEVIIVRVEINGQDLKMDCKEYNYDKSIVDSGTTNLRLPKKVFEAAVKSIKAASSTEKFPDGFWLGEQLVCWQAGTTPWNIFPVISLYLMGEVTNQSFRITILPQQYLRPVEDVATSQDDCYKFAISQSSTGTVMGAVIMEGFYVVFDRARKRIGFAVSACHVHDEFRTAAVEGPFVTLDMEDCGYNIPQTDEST

SMILES	Ki (memapsin 2; [1])	% Inhibition Mep2 (memapsin 2)	Ki (memapsin 2; [2])	Ki (memapsin 2; memapsin 2, read-out: Ki)	Selectivity: Ki for memapsin 2 lower than Ki for memapsin 1 (memapsin 2)	Selectivity: Ki for memapsin 2 lower than Ki for memapsin 1 (memapsin 2; listed as 138)	% Inh (M1/M2) (memapsin 2)	% Inhibition Mep1 (memapsin 1)	Ki (memapsin 1; read-out: Ki for memapsin 1)	Sustainment of inhibition of plasma Aβ40 (plasma Aβ40)	Blood brain barrier penetration (from reduction of plasma Aβ) (plasma Aβ40)	Decrease in plasma Aβ40 (plasma Aβ40)	Ki (memapsin 2; [3])	Vi/Vo (memapsin 2; ratio of initial cleavage velocities of FS-2 with/without compound, enzyme and inhibitor concentrations equal (e.g., about 80 nM, 100 nM))
CSCC[C@H](NC(=O)OCn1nc(C)cc1C)C(=O)N[C@@H](CC(C)C)[C@@H](O)C[C@@H](C)C(=O)N[C@H](C(=O)NCc1ccccc1)C(C)C [MMI-138]	14.2 nM	72%	14.2 nM	14.2 nM and 8.8 nM	about 60 fold	about 60 fold	0.10	7%	811 nM	remained nearly constant	penetrated the blood brain barrier	57%	–	–
CSCC[C@H](NC(=O)OCn1nc(C)cc1C)C(=O)N[C@@H](CC(C)C)[C@@H](O)C[C@@H](C)C(=O)N[C@H](C(=O)NC(C)C)C(C)C [MMI-165]	24.5 nM	60%	24.5 nM	15.3 nM	–	–	0.45	27%	–	remained nearly constant	penetrated the blood brain barrier	46%	15.3 nM	0.4
COCC[C@H](NC(=O)[C@H](CC(C)C)NC(=O)OC(C)(C)C)C(=O)N[C@@H](CC(C)C)[C@@H](O)C[C@@H](C)C(=O)N[C@@H](CC(C)C)C(=O)NC(C)C [MMI-185]	–	–	7.23 nM	4.5 nM	–	–	–	–	–	appeared to return to initial level	penetrated the blood brain barrier	63%	4.52 nM	–
